Data taken from paper PMC11079024, “Identification of a family of species-selective complex I inhibitors as potential anthelmintics” (Nature Communications, 2024).
pIC50: −log10 of the molar value. “And” between values parts separate entries of the source, which are not always exact repeats. Equal values may be shown once. Read-outs that look alike come from different tables or passages of the source.

What was measured:
[1] = molecular target: M. musculus (heart) complex I (Mus musculus, UniProt P03888+Q91WD5+Q9DC70); experiment: biochemical; format: biochemical; parameters: Complex I activity, dose-response data: unit not given here; conditions: for pIC50: heart mitochondria
Description: Six 8–10-week-old C57Bl/6 female mice (Charles River) were freshly dissected, and their livers and hearts collected into separate 1.5 mL microcentrifuge tubes. Organs were flash-frozen in liquid nitrogen and stored at −80 °C prior to use. The heart of a freshly slaughtered adult cow was obtained from a local abattoir (Peel Sausage Inc.), chopped into ~1-inch cubes and collected into 50 mL falcon tubes. Falcon tubes were flash-frozen in a container of dry ice and stored at −80 °C prior to use. Isolation of mitochondria from all mammalian tissue was carried out following the protocol described above. However, due to size, the initial homogenization of tissue was performed by 15 strokes in a dounce homogenizer (mouse heart) or with several 5 s pulses in small Nutribullet blender (cow heart). All mouse protocols for mouse care and dissection were reviewed and approved by the University of Toronto Animal Care Committee, in accordance with the Canadian Council on Animal Care.
The enzymatic activities of individual ETC complexes (I-IV) were assessed spectrophotometrically in isolated mitochondria using a Varioskan LUX Multimode plate reader (ThermoFisher Scientific). Mitochondrial pellets previously isolated were thawed on ice and resuspended in ice-cold isolation buffer (250 mM sucrose, 10 mM Tris (pH 7.5), 1 mM EDTA). The BCA assay (Walker, 1994) was used to quantify the protein concentration of mitochondria suspensions; solutions were diluted to a concentration of 0.2 mg/mL for use in all assays. For the complex I assay, mitochondria pellets were freeze-thawed on ice three times to increase enzyme accessibility. […] 20 μL mitochondria suspension was then added/mixed with a pipette to initiate the reaction. Immediately following the addition of mitochondria, absorbance was measured (complex I and II: 600 nm; complex III and IV: 550 nm) in 30 s intervals over 15 min. Enzymatic activity was determined in each reaction by plotting absorbance versus time and calculating the slope of the curve during the initial linear phase of the reaction. […] Percent activity of each complex was calculated by dividing the enzyme-specific activity of each well by the enzyme-specific activity of the corresponding solvent controls.
Chemical solutions were prepared in complex I assay buffer composed of 25 mM KPi buffer (pH 7.5), 3 mg/mL bovine serum albumin (BSA), 80 μM NADH, 60 μM decylubiquinone, 160 μM DCIP, 2 μM antimycin A and 2 mM KCN.
For preliminary screens of hit compounds, compounds were screened at 100 μM; data are the average of at least three biological replicates. The complex I and II activity assays were used for additional dose-response experiments. […] For dose responses of benzimidazole analogs, data represent the average of two biological replicates. For all other dose-responses, data represent the average of at least three biological replicates.

[2] = system: C. elegans complex III (decylubiquinol-cytochrome C reductase); experiment: In vitro complex III activity assay, C. elegans mitochondria; format: biochemical, Caenorhabditis elegans; conditions: for % Activity Complex III: 100 µM compound, relative to solvent control, mean (SEM); for Percent in vitro activity, Complex III (single replicate Rep1-Rep4) / Percent in vitro activity, Complex III (Mean): 100 μM of NPD compound, C. elegans mitochondria; for Percent in vitro activity, Complex III (single replicate Rep1-Rep4): individual biological replicates; for Percent in vitro activity, Complex III (Mean): mean of four biological replicates; for CIII Activity: 100 μM inhibitor, in vitro activity relative to solvent control, N2 C. elegans mitochondria
Procedure, shortened: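 Mitochondria were isolated from adult C. elegans by bead-beating and differential centrifugation, then used at 0.2 mg/mL protein. Antimycin A-sensitive complex III activity was followed as decylubiquinol-driven cytochrome C reduction at 550 nm every 30 s for 15 min. Initial linear slopes were expressed as percent of solvent control.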

[3] = M. musculus (heart) mitochondria, mean of replicates, read-out: percent (%) in vitro complex I activity relative to solvent control
[4] = M. musculus (heart) mitochondria, single replicate, read-out: percent (%) in vitro complex I activity relative to solvent control

Sequence of M. musculus (heart) complex I (Q91WD5 34-463): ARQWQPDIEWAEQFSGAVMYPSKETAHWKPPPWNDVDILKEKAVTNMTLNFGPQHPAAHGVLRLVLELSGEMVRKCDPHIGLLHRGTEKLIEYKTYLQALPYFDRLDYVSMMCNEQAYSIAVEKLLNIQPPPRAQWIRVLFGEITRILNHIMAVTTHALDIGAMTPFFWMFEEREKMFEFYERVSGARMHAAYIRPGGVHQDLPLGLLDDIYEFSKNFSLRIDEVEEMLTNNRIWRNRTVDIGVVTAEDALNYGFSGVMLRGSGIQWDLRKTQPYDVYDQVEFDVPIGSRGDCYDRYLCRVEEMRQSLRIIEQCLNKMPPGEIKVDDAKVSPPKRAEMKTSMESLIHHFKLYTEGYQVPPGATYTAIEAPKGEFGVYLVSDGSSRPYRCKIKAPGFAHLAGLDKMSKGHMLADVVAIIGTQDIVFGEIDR
Sequence of M. musculus (heart) complex I (Q9DC70 36-224): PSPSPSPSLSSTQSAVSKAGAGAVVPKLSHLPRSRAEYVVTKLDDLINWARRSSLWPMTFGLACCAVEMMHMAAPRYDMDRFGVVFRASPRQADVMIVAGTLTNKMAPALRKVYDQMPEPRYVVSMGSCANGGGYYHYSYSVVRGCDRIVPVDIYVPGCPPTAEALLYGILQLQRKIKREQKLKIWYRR
Sequence of M. musculus (heart) complex I (P03888 whole entry): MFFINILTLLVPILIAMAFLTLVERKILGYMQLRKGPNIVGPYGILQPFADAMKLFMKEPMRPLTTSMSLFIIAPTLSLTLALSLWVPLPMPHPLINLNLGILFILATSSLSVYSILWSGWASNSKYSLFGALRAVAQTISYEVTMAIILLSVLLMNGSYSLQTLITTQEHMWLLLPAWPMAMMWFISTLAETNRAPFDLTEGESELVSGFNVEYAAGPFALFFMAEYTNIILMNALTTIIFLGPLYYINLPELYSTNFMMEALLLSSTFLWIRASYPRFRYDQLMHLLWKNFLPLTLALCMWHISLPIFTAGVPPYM

Compound: CC(C)(C)c1ccc(CCOc2ncnc3ccccc23)cc1 [Fenazaquin, reference compound]
- pIC50 [1]: 7.68

Compound: COc1cc2c(cc1OC)C(c1ccc(-c3ccc(Cl)c(Cl)c3)o1)=NCC2 [NPD3577]
- % Activity Complex III [2]: 65.54 (2.59) %
- Percent in vitro activity, Complex III (single replicate Rep1-Rep4) [2]: 80.555% and 63.410% and 61.250% and 56.942%
- Percent in vitro activity, Complex III (Mean) [2]: 65.539%
- activity at 0.0001 µM ([1]; M. musculus, dose 0.0001 µM, Mean of replicates, read-out: Complex I activity, dose-response data): 99.3%
- Complex I activity, dose-response data ([1]; M. musculus, dose 0.0001 µM, individual replicates (Rep)): 99.760 and 97.530 and 100.984
- activity at 0.0001 µM ([1]; M. musculus, dose 0.0001 µM, individual replicates (Rep), read-out: Complex I activity, dose-response data): 98.7%
- activity at 0.0005 µM ([1]; M. musculus, dose 0.0005 µM, Mean of replicates, read-out: Complex I activity, dose-response data): 99.8%
- Complex I activity, dose-response data ([1]; M. musculus, dose 0.0005 µM, individual replicates (Rep)): 100.720 and 95.586 and 99.617
- activity at 0.0005 µM ([1]; M. musculus, dose 0.0005 µM, individual replicates (Rep), read-out: Complex I activity, dose-response data): 103%
- activity at 0.001 µM ([1]; M. musculus, dose 0.001 µM, Mean of replicates, read-out: Complex I activity, dose-response data): 103%
- Complex I activity, dose-response data ([1]; M. musculus, dose 0.001 µM, individual replicates (Rep)): 108.824 and 94.850 and 104.918
- activity at 0.001 µM ([1]; M. musculus, dose 0.001 µM, individual replicates (Rep), read-out: Complex I activity, dose-response data): 104%
- activity at 0.0025 µM ([1]; M. musculus, dose 0.0025 µM, Mean of replicates, read-out: Complex I activity, dose-response data): 107%
- Complex I activity, dose-response data ([1]; M. musculus, dose 0.0025 µM, individual replicates (Rep)): 111.585 and 102.733 and 109.563
- activity at 0.0025 µM ([1]; M. musculus, dose 0.0025 µM, individual replicates (Rep), read-out: Complex I activity, dose-response data): 103%
- activity at 0.005 µM ([1]; M. musculus, dose 0.005 µM, Mean of replicates, read-out: Complex I activity, dose-response data): 107%
- Complex I activity, dose-response data ([1]; M. musculus, dose 0.005 µM, individual replicates (Rep)): 112.125 and 100.788 and 103.716
- activity at 0.005 µM ([1]; M. musculus, dose 0.005 µM, individual replicates (Rep), read-out: Complex I activity, dose-response data): 109%
- activity at 0.013 µM ([1]; M. musculus, dose 0.013 µM, Mean of replicates, read-out: Complex I activity, dose-response data): 104%
- Complex I activity, dose-response data ([1]; M. musculus, dose 0.013 µM, individual replicates (Rep)): 108.043 and 100.788 and 100.055
- activity at 0.013 µM ([1]; M. musculus, dose 0.013 µM, individual replicates (Rep), read-out: Complex I activity, dose-response data): 107%
- activity at 0.025 µM ([1]; M. musculus, dose 0.025 µM, Mean of replicates, read-out: Complex I activity, dose-response data): 107%
- Complex I activity, dose-response data ([1]; M. musculus, dose 0.025 µM, individual replicates (Rep)): 126.379 and 112.185 and 93.904 and 97.158
- activity at 0.063 µM ([1]; M. musculus, dose 0.063 µM, Mean of replicates, read-out: Complex I activity, dose-response data): 100%
- Complex I activity, dose-response data ([1]; M. musculus, dose 0.063 µM, individual replicates (Rep)): 110.072 and 110.684 and 90.068 and 89.235
- activity at 0.125 µM ([1]; M. musculus, dose 0.125 µM, Mean of replicates, read-out: Complex I activity, dose-response data): 96.8%
- Complex I activity, dose-response data ([1]; M. musculus, dose 0.125 µM, individual replicates (Rep)): 107.614 and 105.282 and 84.971 and 89.399
- activity at 0.313 µM ([1]; M. musculus, dose 0.313 µM, Mean of replicates, read-out: Complex I activity, dose-response data): 197%
- Complex I activity, dose-response data ([1]; M. musculus, dose 0.313 µM, individual replicates (Rep)): 207.614 and 205.282 and 184.971 and 189.399
- activity at 0.625 µM ([1]; M. musculus, dose 0.625 µM, Mean of replicates, read-out: Complex I activity, dose-response data): 297%
- Complex I activity, dose-response data ([1]; M. musculus, dose 0.625 µM, individual replicates (Rep)): 307.614 and 305.282 and 284.971 and 289.399
- activity at 1.5 µM ([1]; M. musculus, dose 1.5 µM, Mean of replicates, read-out: Complex I activity, dose-response data): 397%
- Complex I activity, dose-response data ([1]; M. musculus, dose 1.5 µM, individual replicates (Rep)): 407.614 and 405.282 and 384.971 and 389.399
- activity at 3 µM ([1]; M. musculus, dose 3 µM, Mean of replicates, read-out: Complex I activity, dose-response data): 97.4%
- Complex I activity, dose-response data ([1]; M. musculus, dose 3 µM, individual replicates (Rep)): 96.485 and 88.056 and 108.623 and 96.419
- activity at 15 µM ([1]; M. musculus, dose 15 µM, Mean of replicates, read-out: Complex I activity, dose-response data): 81.9%
- Complex I activity, dose-response data ([1]; M. musculus, dose 15 µM, individual replicates (Rep)): 74.817 and 86.108 and 83.789
- activity at 15 µM ([1]; M. musculus, dose 15 µM, individual replicates (Rep), read-out: Complex I activity, dose-response data): 82.8%
- activity at 37.5 µM ([1]; M. musculus, dose 37.5 µM, Mean of replicates, read-out: Complex I activity, dose-response data): 55.4%
- Complex I activity, dose-response data ([1]; M. musculus, dose 37.5 µM, individual replicates (Rep)): 57.697 and 52.394 and 66.227 and 45.378
- activity at 75 µM ([1]; M. musculus, dose 75 µM, Mean of replicates, read-out: Complex I activity, dose-response data): 50.2%
- Complex I activity, dose-response data ([1]; M. musculus, dose 75 µM, individual replicates (Rep)): 47.944 and 55.928 and 45.443
- activity at 75 µM ([1]; M. musculus, dose 75 µM, individual replicates (Rep), read-out: Complex I activity, dose-response data): 51.4%
- pIC50 [1]: 4.73

Compound: COc1ccc(Cc2nccc3cc(OC)c(OC)cc23)cc1OC [Papaverine, reference compound]
- remaining activity at 0.125 µM [1, 3]: 92.5%
- remaining activity at 0.125 µM [1, 4]: 91.5%
- remaining activity at 0.313 µM [1, 3]: 89.9%
- remaining activity at 0.313 µM [1, 4]: 89.5%
- remaining activity at 0.625 µM [1, 3]: 89.4%
- remaining activity at 0.625 µM [1, 4]: 91.6%
- remaining activity at 1.5 µM [1, 3]: 78.4%
- remaining activity at 1.5 µM [1, 4]: 77.9%
- remaining activity at 3 µM [1, 3]: 63.1%
- remaining activity at 3 µM [1, 4]: 62.6%
- remaining activity at 15 µM [1, 3]: 14.4%
- remaining activity at 15 µM [1, 4]: 15.3%
- remaining activity at 37.5 µM ([1]; 37.5 µM, M. musculus (heart) mitochondria, mean of replicates, read-out: percent (%) in vitro complex I activity relative to solvent control): 4.29%
- remaining activity at 75 µM ([1]; 75 µM, M. musculus (heart) mitochondria, mean of replicates, read-out: percent (%) in vitro complex I activity relative to solvent control): 1.37%
- pIC50 [1]: 5.34

Compound: C=C(C)[C@H]1Cc2c(ccc3c2O[C@@H]2COc4cc(OC)c(OC)cc4[C@@H]2C3=O)O1 [Rotenone, reference compound]
- % Activity Complex III [2]: 99.20 (1.32) %
- CIII Activity ([2]; Mean): 99.203%
- CIII Activity ([2]; single replicate): 92.288% and 102.759% and 97.964% and 103.800%
- Percent in vitro activity, Complex III (single replicate Rep1-Rep4) [2]: 102.759% and 97.964% and 103.800% and 92.288%
- Percent in vitro activity, Complex III (Mean) [2]: 99.203%

Compound: O=C(NCCc1ccc(Cl)cc1)c1ccccc1C(F)(F)F [Wact-11]
- % Activity Complex III [2]: 90.97 (1.75) %
- CIII Activity ([2]; Mean): 90.970%
- CIII Activity ([2]; single replicate): 83.802% and 95.824% and 97.988% and 86.268%
- Percent in vitro activity, Complex III (single replicate Rep1-Rep4) [2]: 83.802% and 95.824% and 97.988% and 86.268%
- Percent in vitro activity, Complex III (Mean) [2]: 90.970%
